Test results reported in ChEMBL document CHEMBL5729039, “Macrocyclic fluorine substituted indole derivatives” (2022).

Tests used:
[1] = target: Apoptosis regulator Bcl-2 (Homo sapiens, UniProt P10415); experiment: (§1) Biological Assay 2: BCL-2 Assay: In the assay 11 different concentrations of each compound (0.1 nM, 0.33 nM, 1.1 nM, 3.8 nM, 13 nM, 44 nM, 0.15 μM, 0.51 μM, 1.7 μM, 5.9 μM and 20 μM) were typically measured as duplicates in the same microtiter plate. For that, 100-fold concentrated DMSO solutions were prepared by serial dilutions (1:3.4) of a 2 mM stock solution in a clear, 384-well microtiter plate (Greiner Bio-One, Frickenhausen, Germany). From there, 50 nl were transferred in a dark test plate (Greiner Bio-One, Frickenhausen, Germany). The assay was initiated by addition of 2 μl of a 2,5-fold concentrated His-BCL-2 solution (usually for a 1 nM end concentration in 5 μl reaction volume) in aqueous assay buffer [50 mM Tris/HCl pH 7, 100 mM sodium chloride (NaCl), 50 mM potassium fluoride (KF), 0.005% Tween-20, 2 mM DTT, 0.1% bovine gamma globulin (BGG)] to the compounds in the assay plate. This was followed by a 10-minute incubation step at 22° C. for pre-equilibration of the putative complex between His-BCL-2 and the compounds. After that, 3 μl of a 1.67-fold concentrated solution (in assay buffer) consisting of Bad BH3-derived peptide (1 nM end concentration) and TR-FRET detection reagents [1.67 nM anti-His-Eu cryptate and 1.67 nM streptavidin-XL665 (both from Cisbio Bioassays, Codolet, France)], were added.
Sequence of Apoptosis regulator Bcl-2 (P10415 whole entry): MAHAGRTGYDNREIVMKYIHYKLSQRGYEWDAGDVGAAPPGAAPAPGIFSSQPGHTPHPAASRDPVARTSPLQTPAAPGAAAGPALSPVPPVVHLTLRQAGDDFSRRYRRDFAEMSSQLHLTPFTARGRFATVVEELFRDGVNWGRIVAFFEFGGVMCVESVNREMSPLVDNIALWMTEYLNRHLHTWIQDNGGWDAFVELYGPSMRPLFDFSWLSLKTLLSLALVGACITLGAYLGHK

Bcl-2-like protein 1 = Bcl-2-like protein 1 (Homo sapiens, UniProt Q07817); experiment: as §1, with “Biological Assay: BCL-XL Assay: In” for “Biological Assay 2: BCL-2 Assay: In”, “2,5-fold concentrated His-BCL-XL solution (usually” for “2,5-fold concentrated His-BCL-2 solution (usually”, “(NaCl), […]” for “(NaCl), 50 mM potassium fluoride”, “complex between His-BCL-XL and the” for “complex between His-BCL-2 and the”
Sequence of Bcl-2-like protein 1 (Q07817 whole entry): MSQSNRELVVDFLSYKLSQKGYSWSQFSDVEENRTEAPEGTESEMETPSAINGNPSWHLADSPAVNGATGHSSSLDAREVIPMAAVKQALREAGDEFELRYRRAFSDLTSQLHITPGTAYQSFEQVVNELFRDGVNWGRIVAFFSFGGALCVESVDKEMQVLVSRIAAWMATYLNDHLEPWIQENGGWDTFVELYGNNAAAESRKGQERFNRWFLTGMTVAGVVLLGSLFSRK

| IC50 [1] [µM] | IC50 (Bcl-2-like protein 1) [µM] | SMILES |
| --- | --- | --- |
| > 20 | > 20 | CCc1c2c(nn1C)COCCCCn1c(C(=O)O)c(CCCOc3cccc4ccccc34)c3ccc(F)c-2c31 |
| > 20 | > 20 | Cc1c2c(nn1C)C[N+](C)(C)CCCCn1c(C(=O)O)c(CCCOc3cccc4ccccc34)c3ccc(F)c-2c31 |
| > 20 | > 20 | Cc1c2c(nn1C)COCCCCn1c(C(=O)O)c(CCCOc3cccc4cc(F)ccc34)c3ccc(F)c-2c31 |
| > 20 | > 20 | CCc1nn(C)c2c1-c1c(F)ccc3c(CCCOc4cccc5cc(F)ccc45)c(C(=O)O)n(c13)CCCCOC2 |
| > 20 | > 20 | CCc1c2c(nn1C)COCCCCn1c(C(=O)O)c(CCCOc3ccc(F)c4ccccc34)c3ccc(F)c-2c31 |
| > 20 | > 20 | Cc1c2c(nn1C)COCCCCn1c(C(=O)O)c(CCCOc3cccc4ccccc34)c3ccc(F)c-2c31 |
